Data published in ChEMBL document CHEMBL1649318, “Chromosomally encoded blaCMY-2 located on a novel SXT/R391-related integrating conjugative element in a Proteus mirabilis clinical isolate” (2010).
Converted amounts (≈) assume the structure as drawn.

Assays:
[1] = tested on: Proteus mirabilis; assay: Antimicrobial activity against Proteus mirabilis TUM4660 by broth dilution method; format: functional
[2] = tested on: Escherichia coli; assay: Antimicrobial activity against Escherichia coli TUM4670 by broth dilution method; format: functional
[3] = tested on: Escherichia coli; assay: Antimicrobial activity against Escherichia coli ML4909 by broth dilution method; format: functional
[4] = tested on: Escherichia coli; assay: Antimicrobial activity against Escherichia coli TUM4672 by broth dilution method
[5] = tested on: Proteus mirabilis; assay: Antimicrobial activity against Proteus mirabilis TUM4660 by broth dilution method in presence of beta-lactamase inhibitor clavulanic acid; format: functional
[6] = tested on: Escherichia coli; assay: Antimicrobial activity against Escherichia coli ML4901 by broth dilution method in presence of beta-lactamase inhibitor clavulanic acid; format: functional
[7] = tested on: Escherichia coli; assay: Antimicrobial activity against Escherichia coli TUM4670 by broth dilution method in presence of beta-lactamase inhibitor clavulanic acid
[8] = tested on: Escherichia coli; assay: Antimicrobial activity against Escherichia coli ML4901 by broth dilution method; format: functional
[9] = tested on: Escherichia coli; assay: Antimicrobial activity against Escherichia coli ML4909 by broth dilution method in presence of beta-lactamase inhibitor clavulanic acid; format: functional
[10] = tested on: Escherichia coli; assay: Antimicrobial activity against Escherichia coli TUM4672 by broth dilution method in presence of beta-lactamase inhibitor clavulanic acid
[11] = tested on: Proteus mirabilis; assay: Antimicrobial activity against Proteus mirabilis TUM4660 by disk diffusion method in presence of 300 ug 3-aminophenyl-boronic acid; format: functional
[12] = tested on: Proteus mirabilis; assay: Antimicrobial activity against Proteus mirabilis TUM4660 by broth dilution method in presence of beta-lactamase inhibitor Tazobactam; format: functional
[13] = tested on: Escherichia coli; assay: Antimicrobial activity against Escherichia coli ML4909 by broth dilution method in presence of beta-lactamase inhibitor Tazobactam; format: functional
[14] = tested on: Escherichia coli; assay: Antimicrobial activity against Escherichia coli ML4901 by broth dilution method in presence of beta-lactamase inhibitor Tazobactam; format: functional
[15] = tested on: Escherichia coli; assay: Antimicrobial activity against Escherichia coli TUM4670 by broth dilution method in presence of beta-lactamase inhibitor Tazobactam; format: functional
[16] = tested on: Escherichia coli; assay: Antimicrobial activity against Escherichia coli TUM4672 by broth dilution method in presence of beta-lactamase inhibitor Tazobactam; format: functional

Molecule	MIC [1] [µg/mL]	MIC [2] [µg/mL]	MIC [3] [µg/mL]	MIC [4] [µg/mL]	MIC [5] [µg/mL]	MIC [6] [µg/mL]	MIC [7] [µg/mL]	MIC [8] [µg/mL]	MIC [9] [µg/mL]	MIC [10] [µg/mL]	diameter of the inhibition zone (DIZ) [11] [mm]	MIC [12] [µg/mL]	MIC [13] [µg/mL]	MIC [14] [µg/mL]	MIC [15] [µg/mL]	MIC [16] [µg/mL]
CO/N=C(\C(=O)N[C@@H]1C(=O)N2C(C(=O)[O-])=C(C[N+]3(C)CCCC3)CS[C@H]12)c1csc(N)n1	2 (≈ 4.16 µM)	1 (≈ 2.08 µM)	≤ 0.06	2 (≈ 4.16 µM)												
CC1(C)S[C@@H]2[C@H](NC(=O)[C@H](N)c3ccc(O)cc3)C(=O)N2[C@H]1C(=O)O [AMOXICILLIN]	> 128	> 128	2 (≈ 5.47 µM)	> 128	> 128	4	> 128	4 (≈ 10.9 µM)	2	> 128						
CO/N=C(\C(=O)N[C@@H]1C(=O)N2C(C(=O)O)=C(COC(C)=O)CS[C@H]12)c1csc(N)n1 [CEFOTAXIME]	8 (≈ 17.6 µM)	16 (≈ 35.1 µM)	≤ 0.06	32 (≈ 70.3 µM)	16	≤ 0.06	32	≤ 0.06	≤ 0.06	64						
CO[C@@]1(NC(=O)Cc2cccs2)C(=O)N2C(C(=O)O)=C(COC(N)=O)CS[C@@H]21 [CEFOXITIN]	128 (≈ 299 µM)	128 (≈ 299 µM)	4 (≈ 9.36 µM)	> 128				2 (≈ 4.68 µM)								
CC(C)(O/N=C(\C(=O)N[C@@H]1C(=O)N2C(C(=O)[O-])=C(C[n+]3ccccc3)CS[C@H]12)c1csc(N)n1)C(=O)O [CEFTAZIDIME]	16 (≈ 29.3 µM)	128 (≈ 234 µM)	0.25 (≈ 0.457 µM)	128 (≈ 234 µM)	16	≤ 0.06	32	0.25 (≈ 0.457 µM)	0.12	64	>5					
O=C(O)c1cn(C2CC2)c2cc(N3CCNCC3)c(F)cc2c1=O [CIPROFLOXACIN]	0.12 (≈ 0.362 µM)	≤ 0.06	≤ 0.06	≤ 0.06				≤ 0.06								
C[C@@H](O)[C@H]1C(=O)N2C(C(=O)O)=C(SCCNC=N)C[C@H]12 [IMIPENEM ANHYDROUS]	8 (≈ 26.7 µM)	0.25 (≈ 0.835 µM)		0.25 (≈ 0.835 µM)												
CCN1CCN(C(=O)N[C@@H](C(=O)N[C@@H]2C(=O)N3[C@@H]2SC(C)(C)[C@@H]3C(=O)O)c2ccccc2)C(=O)C1=O [PIPERACILLIN]	> 128	> 128	2 (≈ 3.86 µM)	> 128				2 (≈ 3.86 µM)				16	2	2	> 128	> 128
COc1cc(Cc2cnc(N)nc2N)cc(OC)c1OC [TRIMETHOPRIM]	4 (≈ 13.8 µM)	≤ 0.06	0.12 (≈ 0.413 µM)	≤ 0.06				≤ 0.06								
GENTAMICIN	1	1	2					2								
